Assay results: patent publication US20140206633A1, “PROCESS FOR THE PREPARATION OF ISOXAZOLINE DERIVATIVES” (SYNGENTA CROP PROTECTION LLC, priority 2010, published 2014)

| Structure (SMILES) | melting point |
| --- | --- |
| C=CC1C[N+]2(Cc3c4ccccc4cc4ccccc34)CCC1C[C@H]2[C@H](O)c1ccnc2ccc(OC)cc12.[Cl-] (some centres unmarked) | 150 to 152 °C (dec.) |
| C=CC1C[N+]2(Cc3c(F)c(F)c(F)c(F)c3F)CCC1C[C@H]2[C@H](O)c1ccnc2ccc(OC)cc12.[Br-] (some centres unmarked) | 162 to 165 °C (dec.) |
